Drawing on patent US5330992A, “1-cyclopropyl-4-pyridyl-quinolinones” (priority 1992, dated 1994), this text covers EC50 and IC50 for 35 compounds.

Like-named read-outs stand apart in the source and are kept apart here. Some results are limits rather than exact numbers.

One assay addresses T1, human topoisomerase II (Homo sapiens, UniProt P11388).
T1 construct: Topo II was purified from late log phase suspension cultures of HeLa WIS; endogenous in cells; host or cells: HeLa WIS suspension cultures, late log phase (enzyme purified from the cells)
As to the kind of experiment: Mammalian Topoisomerase II Inhibition Assay (DNA-topo II complex formation). It counts as biochemical. Particulars: read-out: TopoII Inh. EC50. As to the method:
Mammalian Topoisomerase II Inhibition Assay Procedure
The assay quantitates the amount of topo II covalently complexed by DNA at equilibrium during a topo II reaction. This assay determines the potential of a compound to stabilize this complex, which potential is closely related to the cytotoxicity of the compound.
Assays (in duplicate) were assembled at 4° C.
4 ng 3' end labeled (^32 P) pBR322 DNA (10^7 DMP/μg)
The assay mix including the test compound was incubated for 20 minutes at 37° C. The reaction was terminated at 37° C. by the addition of 3 μl 10% SDS followed by the addition of 266 μl 10 mM Tris-Cl pH 7.5, 20 μg/ml BSA, 20 μg/ml calf thymus DNA, 1% SDS.
A SDS/protein precipitate was formed by the addition of 28 μl 2.5M KCl followed by chilling on ice for a minimum of 10 minutes. The precipitate was collected and washed with a Brandell cell harvester on a GFB glass fiber filter membrane as follows. The contents of the assay tube were drawn up into the harvester. The tube was then rinsed 7X with 10 mM Tris-Cl pH 7.5, 1 mM EDTA and 100 mM KCl. […] After drying, CPM was determined by liquid scintillation counting with 5 ml Biofluor (NEN Research Products) or Readisafe (Beckman Instruments Inc.) cocktail.
This solution then was diluted 1/5 into water and serially thereafter in either 0.02N sodium hydroxide or 0.04N hydrogen chloride, respectively. The stock solution and serial dilution of the test compound was stored at -20° C. prior to testing.
Screening of test compound--As an initial screen, the test compound was tested at a final concentration of 2, 20 and 200 μg/ml. The compound was then retested at a range of concentrations (usually 2-3X steps) bridging their approximate EC50 's, as estimated by the prescreen.
Controls--A solvent control which indicates the base level of topo II-DNA complex formed in the absence of the test compound was included in each test. A control, in which topo II was omitted, was included for each test compound at the highest drug concentration tested.
Reference Agent--A dose response curve with mAMSA at 0.01, 0.08, 0.16, 0.32, 1.0 and 10 μg/ml was included in each test.
The maximal DNA-topo II complex formed is taken as that equal to that formed at the nearly saturating dose of mAMSA (10 μg/ml).

Assay [1] deals with P388 murine leukemia cells. The experiment in a line: Malignant cell cytotoxicity, continuous 48-hour exposure (Coulter Counter). It counts as cell-based. Particulars: Mus musculus, read-out: IC50 P388 cont. exp. Here is the method:
(§1) Examples of compound I having Topo II activity were tested for malignant cell cytotoxicity. In vitro cytotoxicity was assayed by determining cell survival following exposure of P388 murine leukemia cells to a range of test compound concentrations. Cytotoxicity was quantitated following either a one-hour exposure or continuous exposure of P388 cells to test compound.
(§2) Cytotoxicity following a one-hour exposure of cells to drug was assayed by quantitating clonogenic cell survival according to a published procedure [Freshney, R. L. (1987) Culture of Animal Cells. A Manual of Basic Technique. Wiley-Liss Inc., New York, N.Y., pp. 140-144]. Briefly, following drug exposure cells were plated in soft agar and incubated (37°, 5% CO2) for 7-10 days during which time viable cells form visible colonies. Cytotoxicity following continuous exposure of cells to test compound was assayed by quantitating total P388 cells on a Coultier Counter following a 48-hour co-incubation of test compound with cells. P388 cells were maintained in log phase throughout the duration of cytotoxicity assays.
(§3) The percentage of cells surviving relative to an untreated control was graphed as a function of increasing drug concentration.

In assay [2] the test system is P388 murine leukemia cells. The experiment in a line: Malignant cell cytotoxicity, one-hour exposure (clonogenic survival in soft agar). Particulars: Mus musculus, 1 hr exposure, read-out: IC50 P388 1 hr. exp. It counts as cell-based. As to the method: as §1, §2, §3
Setting [3] is: EC50 = concentration with activity equal to EC50 of reference mAMSA.

T1 sequence (P11388 whole entry): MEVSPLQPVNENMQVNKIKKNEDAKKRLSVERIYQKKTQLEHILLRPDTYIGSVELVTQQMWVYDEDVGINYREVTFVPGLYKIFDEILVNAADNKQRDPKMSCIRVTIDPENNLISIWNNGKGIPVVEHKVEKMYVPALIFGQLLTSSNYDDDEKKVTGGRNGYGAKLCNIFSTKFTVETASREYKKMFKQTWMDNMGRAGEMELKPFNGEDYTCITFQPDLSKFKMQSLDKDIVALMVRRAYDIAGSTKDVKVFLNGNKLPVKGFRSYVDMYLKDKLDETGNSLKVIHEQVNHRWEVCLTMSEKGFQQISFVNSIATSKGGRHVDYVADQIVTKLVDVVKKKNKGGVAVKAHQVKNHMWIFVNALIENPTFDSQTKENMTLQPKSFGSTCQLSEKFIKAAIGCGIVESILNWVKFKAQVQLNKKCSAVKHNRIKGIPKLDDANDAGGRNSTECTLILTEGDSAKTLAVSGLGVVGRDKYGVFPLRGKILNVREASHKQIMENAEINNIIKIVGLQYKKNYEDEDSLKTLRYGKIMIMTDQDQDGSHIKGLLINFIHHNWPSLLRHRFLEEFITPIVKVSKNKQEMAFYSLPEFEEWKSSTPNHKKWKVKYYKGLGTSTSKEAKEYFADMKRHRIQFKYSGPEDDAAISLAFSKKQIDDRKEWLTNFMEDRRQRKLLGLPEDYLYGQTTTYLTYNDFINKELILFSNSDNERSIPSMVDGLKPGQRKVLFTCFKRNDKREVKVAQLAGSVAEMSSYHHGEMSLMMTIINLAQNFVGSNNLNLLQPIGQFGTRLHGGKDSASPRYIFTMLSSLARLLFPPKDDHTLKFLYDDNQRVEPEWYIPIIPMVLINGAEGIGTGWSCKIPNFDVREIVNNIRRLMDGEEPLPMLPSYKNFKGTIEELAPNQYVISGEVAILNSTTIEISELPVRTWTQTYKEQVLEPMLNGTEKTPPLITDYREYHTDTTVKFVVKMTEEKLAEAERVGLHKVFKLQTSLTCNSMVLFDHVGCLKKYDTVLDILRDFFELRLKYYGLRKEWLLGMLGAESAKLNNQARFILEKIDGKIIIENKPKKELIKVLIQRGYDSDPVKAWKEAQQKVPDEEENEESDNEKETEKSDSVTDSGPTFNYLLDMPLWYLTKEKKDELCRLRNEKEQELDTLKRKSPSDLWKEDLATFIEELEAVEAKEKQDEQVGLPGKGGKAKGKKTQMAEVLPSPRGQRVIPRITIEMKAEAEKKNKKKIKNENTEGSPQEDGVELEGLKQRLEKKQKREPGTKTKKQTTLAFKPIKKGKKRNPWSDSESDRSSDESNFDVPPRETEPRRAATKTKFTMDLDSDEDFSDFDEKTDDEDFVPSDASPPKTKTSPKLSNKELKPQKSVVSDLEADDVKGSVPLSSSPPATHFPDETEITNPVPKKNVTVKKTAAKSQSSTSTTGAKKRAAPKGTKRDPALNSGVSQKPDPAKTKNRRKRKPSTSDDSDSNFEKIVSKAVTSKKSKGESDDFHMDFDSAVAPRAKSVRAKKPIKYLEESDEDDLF

Consider `Cc1cc(-c2c(F)cc3c(=O)c(Cc4ccccc4NC(=O)C(F)(F)F)cn(C4CC4)c3c2F)cc(C)n1` [Example 22], for which the EC50 on human topoisomerase II (setting [3]) is 4.7 µM.

On to `Cc1cc(-c2c(F)cc3c(=O)c(Cc4cc(O)c(O)c(O)c4)cn(C4CC4)c3c2F)cc(C)n1` [Example 29], for which the IC50 is 8 µM in assay [1] and 3 µM in assay [2]. The EC50 on human topoisomerase II (setting [3]) was 0.6 µM.

As for `Cc1cc(-c2c(F)cc3c(=O)c(Cc4ccccc4NS(C)(=O)=O)cn(C4CC4)c3c2F)cc(C)n1` [Example 25], the concentration for a half-maximal effect (EC50) on human topoisomerase II (setting [3]) worked out at 3.3 µM.

With `Cc1cc(-c2c(F)cc3c(=O)c(Cc4ccc[nH]4)cn(C4CC4)c3c2F)cc(C)n1` [Example 16], the IC50 in assay [2] is 0.93 µM. Further, the EC50 on human topoisomerase II (setting [3]) was 5.1 µM.

In the case of `Cc1cc(-c2c(F)cc3c(=O)c(Cc4cccc(O)c4)cn(C4CC4)c3c2F)cc(C)n1` [Example 31], the 50% inhibitory concentration (IC50) in assay [1] was found to be 1.5 µM; in assay [2], 2.2 µM. The EC50 on human topoisomerase II (setting [3]) is 1.1 µM.

On to `Cc1cc(-c2c(F)cc3c(=O)c(Cc4ccc(O)c(O)c4)cn(C4CC4)c3c2F)cc(C)n1` [Example 32], for which the IC50 in assay [1] amounted to 1.4 µM; in assay [2] it was 0.6 µM. Also, on human topoisomerase II (setting [3]), the EC50 was 0.16 µM.

As for `CC(=O)Nc1ccc(Cc2cn(C3CC3)c3c(F)c(-c4cc(C)nc(C)c4)c(F)cc3c2=O)cc1` [Example 19], the EC50 on human topoisomerase II (setting [3]) worked out at 47 µM.

Consider `Cc1cc(-c2c(F)cc3c(=O)c(Cc4cccc(O)c4O)cn(C4CC4)c3c2F)cc(C)n1` [Example 34], for which the values for the IC50 in assay [1] and in assay [2] were 0.32 µM and 0.88 µM, respectively. Further, at human topoisomerase II (setting [3]), the EC50 came to 0.36 µM.

As for `COc1cccc(Cc2cn(C3CC3)c3c(F)c(-c4cc(C)nc(C)c4)c(F)cc3c2=O)c1` [Example 9], the IC50 in assay [1] was found to be 6.1 µM; in assay [2], 20 µM. For the same compound, at human topoisomerase II (setting [3]), the concentration giving a half-maximal response (EC50) turned out to be 14 µM.

As for `COc1cc(Cc2cn(C3CC3)c3c(F)c(-c4cc(C)nc(C)c4)c(F)cc3c2=O)cc(OC)c1OC` [Example 5], the IC50 in assay [1] turned out to be 18 µM. The 50% effective concentration (EC50) at human topoisomerase II (setting [3]) was more than 190 µM.

Consider `Cc1cc(-c2c(F)cc3c(=O)c(Cc4c(CO)cnc(C)c4O)cn(C4CC4)c3c2F)cc(C)n1` [Example 21], for which, at human topoisomerase II (setting [3]), the EC50 was 4.6 µM.

Regarding `Cc1cc(-c2c(F)cc3c(=O)c(Cc4ccc(Cl)cc4)cn(C4CC4)c3c2F)cc(C)n1` [Example 6], the IC50 is 6.1 µM in assay [1] and 20 µM in assay [2]. Besides, the EC50 on human topoisomerase II (setting [3]) stood at 7.7 µM.

Regarding `Cc1cc(-c2c(F)cc3c(=O)c(Cc4ccc(N)cc4)cn(C4CC4)c3c2F)cc(C)n1` [Example 39], the EC50 at human topoisomerase II (setting [3]) turned out to be 7.2 µM.

On to `COc1ccc(OC)c(Cc2cn(C3CC3)c3c(F)c(-c4cc(C)nc(C)c4)c(F)cc3c2=O)c1` [Example 23], for which the concentration for a half-maximal effect (EC50) at human topoisomerase II (setting [3]) came out at 20 µM.

For `COc1ccc(Cc2cn(C3CC3)c3c(F)c(-c4cc(C)nc(C)c4)c(F)cc3c2=O)c(OC)c1` [Example 12], the IC50 in assay [1] is 7.4 µM; in assay [2], more than 200 µM. The half-maximal effective concentration (EC50) on human topoisomerase II (setting [3]) is more than 210 µM.

Regarding `COc1cccc(OC)c1Cc1cn(C2CC2)c2c(F)c(-c3cc(C)nc(C)c3)c(F)cc2c1=O` [Example 1, 1-Cyclopropyl-6,8-difluoro-7-[2,6-dimethyl-4-pyridinyl]-3-[2,6-dimethoxyphenylmethyl]-1,4-dihydro-quinolin-4-one], the IC50 stood at 20 µM in assay [1] and 80 µM in assay [2]. Moreover, the EC50 at human topoisomerase II (setting [3]) was determined as 37 µM.

`COc1ccc(Cc2cn(C3CC3)c3c(F)c(-c4cc(C)nc(C)c4)c(F)cc3c2=O)c(OC)c1C` [Example 17]: the EC50 at human topoisomerase II (setting [3]) is more than 210 µM.

As for `Cc1cc(-c2c(F)cc3c(=O)c(Cc4ccc5c(c4)OCO5)cn(C4CC4)c3c2F)cc(C)n1` [Example 10], in assay [1], the IC50 was determined as 8.5 µM. Further, the EC50 at human topoisomerase II (* Bell-shaped curve) turned out to be 34 µM.

Consider `Cc1cc(-c2c(F)cc3c(=O)c(Cc4ccc(F)cc4O)cn(C4CC4)c3c2F)cc(C)n1` [Example 2, 1-cyclopropyl-6,8-difluoro-7-[2,6-dimethyl-4-pyridinyl]-3-[4-fluoro-2-hydroxyphenylmethyl) -4(H)-quinolone], for which, in assay [2], the IC50 came to 1.6 µM. In addition, the EC50 on human topoisomerase II (setting [3]) is 1 µM.

On to `Cc1cc(-c2c(F)cc3c(=O)c(Cc4ccc(O)cc4)cn(C4CC4)c3c2F)cc(C)n1` [Example 27, 1-Cyclopropyl-6,8-difluoro-7-[2,6-dimethyl-4-pyridinyl]-3-[4-hydroxyphenylmethyl]-1,4-dihydro-quinoline-4-one], for which the IC50 in assay [1] is 0.45 µM; in assay [2], 1.5 µM. Also, at human topoisomerase II (setting [3]), the EC50 worked out at 1.2 µM.

Take `COc1cc(Cc2cn(C3CC3)c3c(F)c(-c4cc(C)nc(C)c4)c(F)cc3c2=O)cc(OC)c1O` [Example 28]: the 50% inhibitory concentration (IC50) in assay [1] was 4.6 µM; in assay [2], 8.2 µM. Also, the EC50 at human topoisomerase II (setting [3]) worked out at 7.6 µM.

`Cc1cc(-c2c(F)cc3c(=O)c(Cc4ccccn4)cn(C4CC4)c3c2F)cc(C)n1` [Example 4]: in assay [1], the half-maximal inhibitory concentration (IC50) was determined as 4 µM. Further, the half-maximal effective concentration (EC50) on human topoisomerase II (setting [3]) came to 12 µM.

For the compound `COc1ccc(Cc2cn(C3CC3)c3c(F)c(-c4cc(C)nc(C)c4)c(F)cc3c2=O)cc1` [Example 7], the IC50 in assay [1] is 14 µM; in assay [2] it was 21 µM. Also, the EC50 at human topoisomerase II (* Bell-shaped curve, E = extrapolated) was 14 µM.

For `Cc1cc(-c2c(F)cc3c(=O)c(Cc4cccc(F)c4O)cn(C4CC4)c3c2F)cc(C)n1` [Example 37], the IC50 in assay [2] stood at 125 µM. Also, at human topoisomerase II (setting [3]), the EC50 was determined as 0.15 µM.

In the case of `Cc1cc(-c2c(F)cc3c(=O)c(Cc4ccc(O)c(C)c4O)cn(C4CC4)c3c2F)cc(C)n1` [Example 36], on human topoisomerase II (setting [3]), the EC50 came to 0.2 µM.

`Cc1cc(-c2c(F)cc3c(=O)c(Cc4c(O)cc(O)cc4O)cn(C4CC4)c3c2F)cc(C)n1` [Example 35]: in assay [2], the IC50 stood at 0.47 µM. The EC50 at human topoisomerase II (setting [3]) stood at 0.098 µM.

Take `COc1cc(OC)c(Cc2cn(C3CC3)c3c(F)c(-c4cc(C)nc(C)c4)c(F)cc3c2=O)c(OC)c1` [Example 14]: the EC50 on human topoisomerase II (setting [3]) was more than 190 µM.

For the compound `Cc1cc(-c2c(F)cc3c(=O)c(Cc4c[nH]cn4)cn(C4CC4)c3c2F)cc(C)n1` [Example 24], in assay [2], the IC50 turned out to be 0.39 µM. The EC50 at human topoisomerase II (setting [3]) was determined as 1.6 µM.

As for `Cc1cc(-c2c(F)cc3c(=O)c(Cc4cc(O)ccc4O)cn(C4CC4)c3c2F)cc(C)n1` [Example 38], the IC50 in assay [2] was 0.36 µM. Further, the EC50 at human topoisomerase II (setting [3]) is 0.16 µM.

Regarding `Cc1cc(-c2c(F)cc3c(=O)c(Cc4ccccc4C(=O)O)cn(C4CC4)c3c2F)cc(C)n1` [Example 15], at human topoisomerase II (setting [3]), the concentration for a half-maximal effect (EC50) worked out at 200 µM.

As to `Cc1cc(-c2c(F)cc3c(=O)c(Cc4ccncc4)cn(C4CC4)c3c2F)cc(C)n1` [Example 13], the IC50 in assay [1] is 2.3 µM. At human topoisomerase II (setting [3]), the EC50 came out at 9.1 µM.

For `COc1ccccc1Cc1cn(C2CC2)c2c(F)c(-c3cc(C)nc(C)c3)c(F)cc2c1=O` [Example 8], the IC50 came out at 6.9 µM in assay [1] and 37 µM in assay [2]. Moreover, the EC50 on human topoisomerase II (setting [3]) came out at 11 µM.

Turning to `CC(=O)Nc1ccccc1Cc1cn(C2CC2)c2c(F)c(-c3cc(C)nc(C)c3)c(F)cc2c1=O` [Example 41b], at human topoisomerase II (setting [3]), the concentration for a half-maximal effect (EC50) is 5.1 µM.

As to `Cc1cc(-c2c(F)cc3c(=O)c(Cc4ccccc4N)cn(C4CC4)c3c2F)cc(C)n1` [Example 41a], the EC50 at human topoisomerase II (setting [3]) worked out at 2.1 µM.

As to `COc1cccc(Cc2cn(C3CC3)c3c(F)c(-c4cc(C)nc(C)c4)c(F)cc3c2=O)c1OC` [Example 11], in assay [1], the IC50 is 8.9 µM. For the same compound, the half-maximal effective concentration (EC50) on human topoisomerase II (setting [3]) is more than 210 µM.
